Data taken from publication PMC6614805 (2019).

tested on: SCA2.1 (DNA, aptamer) CTTACGACCTTAAGTGGGGTTCGGGTGGAGTTTATGGGGTCGTAAG; assay: ITC; details: 20 mM NaCl, 0.5 mM MgCl2; 10 mM Tris-HCl pH 7.4, 23 °C; pure enantiomer, one-site model

Compound	KD [nM]
CCCC(C(=O)c1ccc2c(c1)OCO2)N1CCCC1 (stereo not drawn)	3610 ± 120
CCC[C@H](C(=O)c1ccc2c(c1)OCO2)N1CCCC1	46.5 ± 7.5

same assay, conditions: 20 mM NaCl, 0.5 mM MgCl2; 10 mM Tris-HCl pH 7.4, 23 °C; racemate, modified two-site model; site 1 of 2 (one enantiomer)

Compound	KD1 [µM]
CCC(NC)C(=O)c1ccc2c(c1)OCO2 (racemic)	0.16 ± 0.05
CCCC(C(=O)c1ccc2c(c1)OCO2)N1CCCC1 (racemic)	0.0175 ± 0.0164
CCCC(C(=O)c1ccccc1)N1CCCC1 (racemic)	0.09 ± 0.02
CCNC(C)C(=O)c1ccc2c(c1)OCO2 (racemic)	0.10 ± 0.03

tested on: SCA2.1 (DNA, aptamer) CTTACGACCTTAAGTGGGGTTCGGGTGGAGTTTATGGGGTCGTAAG; assay: absorbance titration at 775 nm; details: 20 mM NaCl, 0.5 mM MgCl2; 10 mM Tris-HCl pH 7.4, 0.01% Tween 20, 1% DMSO, room temperature; 2 µM Cy7

Compound	KD [nM]
CCN1C(=CC=CC=CC=Cc2sc3ccccc3[n+]2CC)Sc2ccccc21	1600

tested on: SCA2.1 (DNA, aptamer) CTTACGACCTTAAGTGGGGTTCGGGTGGAGTTTATGGGGTCGTAAG; assay: Cy7 displacement, absorbance A670/A775; details: Cy7 (2 µM) displaced from 3 µM SCA2.1; 50 µM compound

Compound	binding
CCCC(C(=O)c1ccc2ccccc2c1)N1CCCC1 (stereo not drawn)	yes
CCCC(NC)C(=O)c1ccc2c(c1)OCO2 (stereo not drawn)	yes
CNC(C)C(=O)c1ccc(C)cc1 (stereo not drawn)	yes
CNC(C)C(=O)c1ccc(F)cc1 (stereo not drawn)	yes
CNC(C)C(=O)c1ccc2c(c1)OCO2 (stereo not drawn)	yes
CNC(C)C(=O)c1cccc(F)c1 (stereo not drawn)	yes
CNC(C)C(=O)c1ccccc1 (stereo not drawn)	yes
C[C@H](N)C(=O)c1ccccc1	yes

same assay, conditions: Cy7 (2 µM) displaced from 3 µM SCA2.1; highest concentration tested 50 µM

Compound	binding
CC(=O)Nc1ccc(O)cc1	no
CCN(CC)CC(=O)Nc1c(C)cccc1C	no
CCOC(=O)c1ccc(N)cc1	no
CN[C@@H](C)[C@@H](O)c1ccccc1	no
Cn1c(=O)c2c(ncn2C)n(C)c1=O	no
OC[C@H]1O[C@@](CO)(O[C@H]2O[C@H](CO)[C@@H](O)[C@H](O)[C@H]2O)[C@@H](O)[C@@H]1O	no
